Data reported in patent US20220265817A1, “THERAPEUTIC COMPOSITIONS AND METHODS FOR TREATING HEPATITIS B” (priority 2017, published 2022).
Where two headings read alike, the source gives them in different places.

Experiments:
[1] = system: D type HBV in primary human hepatocytes; experiment: microbe, parasite or virus in culture; type: cell-based; settings: Hepatitis B virus, Hepatocyte; for EC50: determined in an earlier separate experiment
Procedure: (§1) The mouse liver perfusion was applied to isolate PHHs. The isolated hepatocytes were further purified by Percoll. The cells were resuspended with culture media and seeded into the 96-well plates (6×10^4 cell/well) or 48-well plates (1.2×10^5 cell/well). The PHHs were infected with a D type HBV one day post seeding (day 1).
(§2) On day 2, the test compounds were diluted and added into the cell culture plates. The culture media containing the compounds were refreshed every other day. The cell culture supernatants were collected on day 8 for the HBV DNA and antigen determinations.
(§3) The compounds were tested at 7 concentrations, 3-fold dilution, in triplicate.
(§4) Two compounds were tested at 5×5 matrix, in triplicate plates.
DNA in the culture supernatants harvested on days 8 were isolated with QIAamp 96 DNA Blood Kit (Qiagen-51161). For each sample, 100 μl of the culture supernatants was used to extract DNA. The DNA was eluted with 100 μl, 150 μl or 180 μl of AE. HBV DNA in the culture supernatants was quantified by qPCR. The combination effect was analyzed by the MacSynergy software. The primers are described below.

[2] = system: D type HBV in primary human hepatocytes (HBeAg); experiment: microbe, parasite or virus in culture; type: cell-based; settings: Hepatitis B virus, Hepatocyte
Procedure: as §1, §2, §3, §4
HBsAg/HBeAg in the culture supernatants harvested on days 8 were measured by the HBsAg/HBeAg ELISA kit (Autobio) according to the manual. The samples were diluted with PBS to get the signal in the range of the standard curve. The inhibition rates were calculated with the formula below. The combination effect was analyzed by the MacSynergy software.
% Inh. HBeAg=[1-HBeAg quantity of sample/HBV quantity of DMSO control]×100.

## O=C(Nc1ccc(F)c(F)c1)c1cc(S(=O)(=O)NC2CCCC2)ccc1F [Compound 22]
[1]; TAF 0.00 nM, COMPOUND 22 61.728 nM
  inhibition at 0.061728 µM: 2.38%
[1]; TAF 0.00 nM, COMPOUND 22 185.19 nM, read-out: AVERAGE % INHIBITION
  inhibition at 0.18519 µM: -3.33%
[1]; TAF 0.00 nM, COMPOUND 22 555.56 nM, read-out: AVERAGE % INHIBITION
  inhibition at 0.55556 µM: 8.01%
[1]; TAF 0.00 nM, COMPOUND 22 1666.7 nM
  inhibition at 1.6667 µM: 28%
[1]; TAF 0.00 nM, COMPOUND 22 5000 nM, read-out: AVERAGE % INHIBITION
  inhibition at 5 µM: 54.7%
[1]; read-out: AVERAGE % […] DNA, COMPOUND 22 61.73 nM alone
  inhibition at 0.06173 µM: -11.8%
[1]; read-out: AVERAGE % […] DNA, COMPOUND 22 185.19 nM alone, read-out: AVERAGE % INHIBITION HBV DNA
  inhibition at 0.18519 µM: -9.12%
[1]; read-out: AVERAGE % […] DNA, COMPOUND 22 555.56 nM alone, read-out: AVERAGE % INHIBITION HBV DNA
  inhibition at 0.55556 µM: -12.7%
[1]; read-out: AVERAGE % […] DNA, COMPOUND 22 1666.67 nM alone
  inhibition at 1.66667 µM: 17.9%
[1]; read-out: AVERAGE % […] DNA, COMPOUND 22 5000.00 nM alone, read-out: AVERAGE % INHIBITION HBV DNA
  inhibition at 5 µM: 63.1%
[1]; HBV DNA, read-out: Inhibitor EC50
  EC50: 1.02 µM
[1]; PHH, read-out: Inhibitor B EC50 HBV DNA
  EC50: 1.02 µM
[2]; read-out: AVERAGE % INHIBITION HBeAg, COMPOUND 22 61.73 nM alone
  inhibition at 0.06173 µM: -16.8%
[2]; read-out: AVERAGE % INHIBITION HBeAg, COMPOUND 22 185.19 nM alone
  inhibition at 0.18519 µM: -14.6%
[2]; read-out: AVERAGE % INHIBITION HBeAg, COMPOUND 22 555.56 nM alone
  inhibition at 0.55556 µM: -7.23%
[2]; read-out: AVERAGE % INHIBITION HBeAg, COMPOUND 22 1666.67 nM alone
  inhibition at 1.66667 µM: 8.5%
[2]; read-out: AVERAGE % INHIBITION HBeAg, COMPOUND 22 5000.00 nM alone
  inhibition at 5 µM: 21.7%
[2]; read-out: AVERAGE % INHIBITION, IFNα2a 0.00 IU/mL, COMPOUND 22 61.73 μM
  inhibition at 61.73 µM: -7.2%
[2]; read-out: AVERAGE % INHIBITION, IFNα2a 0.00 IU/mL, COMPOUND 22 185.19 μM
  inhibition at 185.19 µM: -9.57%
[2]; read-out: AVERAGE % INHIBITION, IFNα2a 0.00 IU/mL, COMPOUND 22 555.56 μM
  inhibition at 555.56 µM: -8.17%
[2]; read-out: AVERAGE % INHIBITION, IFNα2a 0.00 IU/mL, COMPOUND 22 1666.67 μM
  inhibition at 1666.67 µM: 5.92%
[2]; read-out: AVERAGE % INHIBITION, IFNα2a 0.00 IU/mL, COMPOUND 22 5000.00 μM
  inhibition at 5000 µM: 20.9%
[2]; read-out: AVERAGE % INHIBITION, TAF 0.00 nM, COMPOUND 22 61.728 nM
  inhibition at 0.061728 µM: -6.71%
[2]; read-out: AVERAGE % INHIBITION, TAF 0.00 nM, COMPOUND 22 185.19 nM
  inhibition at 0.18519 µM: -12.4%
[2]; read-out: AVERAGE % INHIBITION, TAF 0.00 nM, COMPOUND 22 555.56 nM
  inhibition at 0.55556 µM: -5.06%
[2]; read-out: AVERAGE % INHIBITION, TAF 0.00 nM, COMPOUND 22 1666.7 nM
  inhibition at 1.6667 µM: 10.1%
[2]; read-out: AVERAGE % INHIBITION, TAF 0.00 nM, COMPOUND 22 5000 nM
  inhibition at 5 µM: 29.7%
[2]; read-out: Inhibitor B EC50 HBeAg
  EC50: 10.7 µM
[2]; read-out: Inhibitor EC50
  EC50: 10.7 µM
